Assay [1] deals with MRSA USA300 persister cells tolerant to ciprofloxacin. Description: Killing of S. aureus persister cells. In kind it is cell-based. The settings on record: added after ciprofloxacin treatment; 48 h.
Assay [2] concerns MRSA USA300. As to the kind of experiment: Mouse model of MRSA systemic infection (lethal). The settings on record: oral 25 mg/kg once daily, three doses. The assay is classed as in vivo, BALB/c mice. The text has this: For MRSA systemic infection, neutropenic Female BALB/c mice were inoculated IP with 1×10^9 MRSA USA300.
Assay [3] deals with MRSA USA300. As to the kind of experiment: Library hits: MIC/MBC against MRSA. The assay is classed as cell-based, Staphylococcus aureus.
Assay [4] concerns vancomycin resistant E. faecium ATCC 700221 (VRE). Description: Library hits: MIC/MBC against VRE. The assay is classed as cell-based.
For the next assay, the system named is intracellular MRSA. As to the kind of experiment: Synergy with conventional antimicrobials in infected cell cultures. The following applies: compared to monotherapy. In kind it is cell-based.
Another assay concerns A. baumannii. As to the kind of experiment: MIC against G-ve with and without colistin: A. baumannii. The assay is classed as cell-based.
For a further assay, the system named is E.. coli O157:H7. Description: MIC against G-ve with and without colistin: E. coli O157:H7. The assay is classed as cell-based. The settings on record: E. coli O157:H7.
Another assay relates to S. Typhimurium. As to the kind of experiment: MIC against G-ve with and without colistin: S. Typhimurium. The assay is classed as cell-based.
In the next assay the test system is K. pneumonia. Description: MIC against G-ve with and without colistin: K. pneumonia. The assay is classed as cell-based.
Another assay relates to P. aeruginosa. Description: MIC against G-ve with and without colistin: P. aeruginosa. In kind it is cell-based.
Assay [5] relates to K. pneumoniae ATCC BAA-1705. As to the kind of experiment: Library hits: MIC against K. pneumoniae. In kind it is cell-based.
Assay [6] deals with A. baumannii ATCC BAA-1605. Description: Library hits: MIC against A. baumannii. In kind it is cell-based.
The subject of the next assay is E. cloacae ATCC BAA-1143. Description: Library hits: MIC against E. cloacae. In kind it is cell-based.
For the next assay, the system named is P. aeruginosa ATCC 15442. Description: Library hits: MIC against P. aeruginosa. In kind it is cell-based.
Where [7] appears, read: Staphylococcus aureus, read-out: MBC.
Setting [8] is: Staphylococcus aureus, read-out: MIC.

Values after ≈ are worked out from the molar mass of the structure shown. Like-named read-outs stand apart in the source and are kept apart here. Numbered stars: 1 amine (or outer) side, 2 acyl side, 3 side chain; on linkers, the order of the positions; unused ones are H or OH. Bridge positions count the residues as written; N and C are the ends. Square brackets hold non-standard residues; d marks the D form. Peptide text beside a SMILES is read from it. I, II: the chains in the order shown. Actinocin(9to1) = Cc1c2oc3c(C)ccc(C(=O)[*:1])c3nc-2c(C(=O)[*:2])c(N)c1=O; NMeV = CN[C@H](C(=O)O)C(C)C; Sar = CNCC(=O)O

One may read the MBC as the lowest tested concentration that kills the bacteria rather than only halting them. As a reminder, the MIC is the least concentration at which growth counts as inhibited.

As to `CC(=O)NC[C@H]1CN(c2ccc(N3CCOCC3)c(F)c2)C(=O)O1` [linezolid], the “effect on number of planktonic persister cells” value in assay [1] is “minimal impact”. Also, the mice survival entry in the assay on MRSA USA300 [2] is reported as “significantly increased mice survival”.

Take `Clc1ccc(CO/N=C(\Cn2ccnc2)c2ccc(Cl)cc2Cl)c(Cl)c1` [Oxiconazole]: the MBC in the assay on MRSA USA300 [3] (setting [7]) stood at 32 µM (≈ 13.7 µg/mL).

As to `Cc1c2oc3c(C)ccc(C(=O)N[C@@H]4C(=O)N[C@H](C(C)C)C(=O)N5CCC[C@H]5C(=O)N(C)CC(=O)N(C)[C@@H](C(C)C)C(=O)O[C@@H]4C)c3nc-2c(C(=O)N[C@@H]2C(=O)N[C@H](C(C)C)C(=O)N3CCC[C@H]3C(=O)N(C)CC(=O)N(C)[C@@H](C(C)C)C(=O)O[C@@H]2C)c(N)c1=O` [Dactinomycin] (I: T[dV]P[Sar][NMeV] / II: T[dV]P[Sar][NMeV]; ester I:1-I:C, II:1-II:C; linker I:N-II:N via Actinocin(9to1)), the MIC is over 16 µM against MRSA USA300 [3] (Staphylococcus aureus) and 0.5 µM (≈ 0.628 µg/mL) in [4].

As to `Cc1nc2ccc(CN(C)c3ccc(C(=O)N[C@@H](CCC(=O)O)C(=O)O)s3)cc2c(=O)[nH]1` [Raltitrexed], the MIC is over 16 µM in the assay with MRSA USA300 [3] (setting [8]) and 2 µM (≈ 0.917 µg/mL) in assay [4] (VRE, read-out: MIC).

As to `CC[C@H]1OC(=O)[C@H](C)[C@@H](O[C@H]2C[C@@](C)(OC)[C@@H](O)[C@H](C)O2)[C@H](C)[C@@H](O[C@@H]2O[C@H](C)C[C@H](N(C)C)[C@H]2O)[C@](C)(O)C[C@@H](C)C(=O)[C@H](C)[C@@H](O)[C@]1(C)O` [erythromycin], the “activity when combined with Auranofin and Ebselen in infected cell cultures” value in the assay with intracellular MRSA is on record as “synergistic activity”.

Take `COc1cccc2c1C(=O)c1c(O)c3c(c(O)c1C2=O)C[C@@](O)(C(C)=O)C[C@@H]3O[C@H]1C[C@H](N)[C@H](O)[C@H](C)O1` [Daunorubicin]: in the assay with MRSA USA300 [3] (Staphylococcus aureus), the MBC is 16 µM (≈ 8.44 µg/mL). Also, the MIC stood at 16 µM (≈ 8.44 µg/mL) in the assay on MRSA USA300 [3] (Staphylococcus aureus) and 8 µM (≈ 4.22 µg/mL) in assay [4].

With colistin, the MICs of colistin against A. baumannii came to 0.25 µg/mL; in the assay with E.. coli O157:H7, 0.25 µg/mL; in the assay with S. Typhimurium, 1 µg/mL; in the assay on K. pneumonia, 0.25 µg/mL; in the assay on P. aeruginosa it was 0.5 µg/mL.

On to `O=c1[nH]c(=O)n(C2CCCO2)cc1F` (stereo not drawn) [Ftorafur], for which the MIC in the assay with MRSA USA300 [3] (setting [8]) was over 16 µM; in assay [4] (VRE, read-out: MIC), 16 µM (≈ 3.2 µg/mL).

`CC(C)c1ccc2c(c1)c(SC(C)(C)C)c(CC(C)(C)C(=O)O)n2Cc1ccc(Cl)cc1` [MK-886]: the MBC in the assay on MRSA USA300 [3] (MRSA, read-out: MBC) is 16 µM (≈ 7.55 µg/mL). Also, the MIC with MRSA USA300 [3] (MRSA, read-out: MIC) came to 8 µM (≈ 3.78 µg/mL); in [4] (VRE, read-out: MIC), 8 µM (≈ 3.78 µg/mL).

Consider `CC(=O)Nc1nnc(S(N)(=O)=O)s1` [Acetazolamide], for which the MIC in the assay with MRSA USA300 [3] (setting [8]) is over 16 µM; in assay [4] (VRE, read-out: MIC) it was 1 µM (≈ 0.222 µg/mL).

As for `CN(C)CCOc1ccc(/C(=C(/CCCl)c2ccccc2)c2ccccc2)cc1` [Toremifene], the minimal bactericidal concentration (MBC) with MRSA USA300 [3] (setting [7]) was 16 µM (≈ 6.5 µg/mL). Moreover, the minimal inhibitory concentration (MIC) with MRSA USA300 [3] (setting [8]) was found to be 16 µM (≈ 6.5 µg/mL); in assay [4] (VRE, read-out: MIC) it was 16 µM (≈ 6.5 µg/mL).

Turning to `Clc1ccc(COC(Cn2ccnc2)c2ccc(Cl)cc2Cl)cc1` (stereo not drawn) [Econazole], the MBC in the assay with MRSA USA300 [3] (setting [7]) worked out at 32 µM (≈ 12.2 µg/mL). Moreover, the MIC is 4 µM (≈ 1.53 µg/mL) with MRSA USA300 [3] (setting [8]) and over 16 µM in assay [4] (VRE, read-out: MIC).

Consider `NS(=O)(=O)c1cc(C(=O)O)c(NCc2ccco2)cc1Cl` [Furosemide], for which the minimum inhibitory concentration (MIC) is over 16 µM in the assay on MRSA USA300 [3] (setting [8]) and 4 µM (≈ 1.32 µg/mL) in assay [4] (VRE, read-out: MIC).

As for `CC(C)NCC(O)c1ccc(O)c(O)c1` (stereo not drawn) [Isoproterenol], in the assay on MRSA USA300 [3] (setting [7]), the minimum bactericidal concentration (MBC) was determined as 64 µM (≈ 13.5 µg/mL). In addition, the minimal inhibitory concentration (MIC) in the assay with MRSA USA300 [3] (setting [8]) was 16 µM (≈ 3.38 µg/mL); in assay [4] (VRE, read-out: MIC), over 16 µM.

As for `CCN(CC)CCOc1ccc(C(=C(Cl)c2ccccc2)c2ccccc2)cc1` [Clomid], the minimal bactericidal concentration (MBC) with MRSA USA300 [3] (setting [7]) turned out to be 32 µM (≈ 13 µg/mL). Also, the MIC in the assay with MRSA USA300 [3] (setting [8]) was found to be 16 µM (≈ 6.5 µg/mL); in assay [4] (VRE, read-out: MIC), 16 µM (≈ 6.5 µg/mL).

As to `COc1cccc2c1C(=O)c1c(O)c3c(c(O)c1C2=O)C[C@@](O)(C(=O)CO)C[C@@H]3O[C@H]1C[C@H](N)[C@@H](O)[C@H](C)O1` [Epirubicin], the MBC in the assay with MRSA USA300 [3] (setting [7]) came out at 64 µM (≈ 34.8 µg/mL). The MIC in the assay with MRSA USA300 [3] (setting [8]) came out at 16 µM (≈ 8.7 µg/mL); in assay [4] (VRE, read-out: MIC), 8 µM (≈ 4.35 µg/mL).

In the case of `Clc1ccccc1C(c1ccccc1)(c1ccccc1)n1ccnc1` [Clotrimazole], the MBC in the assay on MRSA USA300 [3] (setting [7]) turned out to be 64 µM (≈ 22.1 µg/mL). Besides, the MIC is 4 µM (≈ 1.38 µg/mL) with MRSA USA300 [3] (setting [8]) and over 16 µM in assay [4] (VRE, read-out: MIC).

As to `O=c1[nH]cc(F)c(=O)[nH]1` [5-Fluorouracil], in the assay with MRSA USA300 [3] (setting [7]), the minimal bactericidal concentration (MBC) was found to be 16 µM (≈ 2.08 µg/mL). Besides, the minimal inhibitory concentration (MIC) was 4 µM (≈ 0.52 µg/mL) in the assay on MRSA USA300 [3] (setting [8]) and over 16 µM in [4] (VRE, read-out: MIC).

`CCCCCCCCCOc1ccc2[nH]cc(CCN)c2c1` [5-Nonyloxytryptamine] returned a minimum bactericidal concentration (MBC) with MRSA USA300 [3] (Staphylococcus aureus) of 8 µM (≈ 2.42 µg/mL). Besides, the MIC with MRSA USA300 [3] (Staphylococcus aureus) was 4 µM (≈ 1.21 µg/mL); in [4], 8 µM (≈ 2.42 µg/mL). Further, the MIC/MBC in assay [5] is over 16 µM; in [6], 16 µM (≈ 4.84 µg/mL); in the assay with E. cloacae ATCC BAA-1143 it was 16 µM (≈ 4.84 µg/mL); against P. aeruginosa ATCC 15442, over 16 µM.

As to `CSc1nc2cc(Cl)c(Oc3cccc(Cl)c3Cl)cc2[nH]1` [Triclabendazole], the minimal bactericidal concentration (MBC) with MRSA USA300 [3] (setting [7]) was 32 µM (≈ 11.5 µg/mL). For the same compound, the MIC in the assay with MRSA USA300 [3] (setting [8]) was 8 µM (≈ 2.88 µg/mL); in assay [4] (VRE, read-out: MIC), over 16 µM.

On to `CC/C(=C(\c1ccccc1)c1ccc(OCCN(C)C)cc1)c1ccccc1` [Tamoxifen], for which the MBC with MRSA USA300 [3] (setting [7]) came to 16 µM (≈ 5.94 µg/mL). Besides, the MIC with MRSA USA300 [3] (setting [8]) is 16 µM (≈ 5.94 µg/mL); in [4] (VRE, read-out: MIC), over 16 µM.

As to `Clc1ccc(COC(Cn2ccnc2)c2ccc(Cl)cc2Cl)c(Cl)c1` (stereo not drawn) [Miconazole], the minimum bactericidal concentration (MBC) in the assay on MRSA USA300 [3] (setting [7]) worked out at 8 µM (≈ 3.33 µg/mL). Moreover, the MIC was 4 µM (≈ 1.66 µg/mL) in the assay with MRSA USA300 [3] (setting [8]) and over 16 µM in [4] (VRE, read-out: MIC).

With `CC(=O)[C@]1(O)Cc2c(O)c3c(c(O)c2[C@@H](O[C@H]2C[C@H](N)[C@H](O)[C@H](C)O2)C1)C(=O)c1ccccc1C3=O` [Idarubicin], the minimum bactericidal concentration (MBC) in the assay on MRSA USA300 [3] (setting [7]) is 4 µM (≈ 1.99 µg/mL). Besides, the MIC was determined as 4 µM (≈ 1.99 µg/mL) with MRSA USA300 [3] (setting [8]) and 4 µM (≈ 1.99 µg/mL) in assay [4] (VRE, read-out: MIC).

For `C=C[C@]1(C)C[C@@H](OC(=O)CS[C@@H]2C[C@H]3CC[C@@H](C2)N3C)[C@]2(C)[C@H](C)CC[C@]3(CCC(=O)[C@H]32)[C@@H](C)[C@@H]1O` [retapamulin], in assay [1], the “effect on number of planktonic persister cells” value was “minimal impact”.

As for `CCCCCCNC(=O)n1cc(F)c(=O)[nH]c1=O` [Carmofur], the MBC with MRSA USA300 [3] (setting [7]) worked out at 4 µM (≈ 1.03 µg/mL). Moreover, the MIC with MRSA USA300 [3] (setting [8]) is 2 µM (≈ 0.515 µg/mL); in assay [4] (VRE, read-out: MIC), over 16 µM.

Turning to `c1ccc(-c2ccc(C(c3ccccc3)n3ccnc3)cc2)cc1` (stereo not drawn) [Bifonazole], the MBC with MRSA USA300 [3] (setting [7]) was over 64 µM. The minimal inhibitory concentration (MIC) in the assay on MRSA USA300 [3] (setting [8]) is 8 µM (≈ 2.48 µg/mL); in [4] (VRE, read-out: MIC), over 16 µM.

For the origin of these results see patent US10301664B2, “Repurposing non-antimicrobial drugs and clinical molecules to treat bacterial infections” (Purdue Research Foundation, priority 2015, dated 2019).
